Experimental data published in patent EP4733310A1, “NOVEL PEPTIDE AND USE THEREOF” (Gemvax & Kael Co., Ltd., priority 2023, dated 2024).
Square brackets hold non-standard residues; d marks the D form. Peptide text beside a SMILES is read from it. pGlu = O=C1CC[C@@H](C(=O)O)N1

Tests used:
[1] = Stability in human plasma (LC-MS, residual peptide); assay type: in vitro ADME; conditions: 5 µM, 37 °C, 10, 60 and 240 minutes, FIG. 1
Experimental: GV2001 and GV1001 were each added to human plasma and diluted to a concentration of 5 µM, followed by incubation at 37 °C for 10, 60, and 240 minutes with stirring. The reaction mixture was collected and pretreated by plasma protein precipitation using methanol containing 0.1% formic acid. The resulting supernatants were collected and analyzed by LC-MS under the conditions shown in Table 1 below to determine the percentage of residual peptide relative to the initial peptide amount.

[2] = Pharmacokinetic profile after intravenous administration to rats; assay type: in vivo; conditions: Sprague Dawley rats, FIG. 2
Experimental: (§1) To determine the pharmacokinetic profile of GV2001 prepared in Example 1, plasma was collected from rats administered with GV2001. The collected plasma was pretreated by protein precipitation using nine times the volume of methanol containing 0.1% formic acid, followed by centrifugation at 16,100 g for 10 minutes.
(§2) GV2001 and GV1001 were administered intravenously (IV) to three Sprague Dawley rats in each group. Blood samples were collected at 0.033, 0.083, 0.17, 0.25, 0.5, 1, and 2 hours after administration. The collected blood samples were centrifuged to separate plasma, pretreated, and analyzed using LC-MS. Pharmacokinetic parameters were calculated using the non-compartmental analysis model of the Phoenix WinNonlin (Pharsight, ver. 6.4, USA) program.

[3] = Pharmacokinetic profile after subcutaneous administration to rats; assay type: in vivo; conditions: subcutaneous (SC), Sprague Dawley rats; FIG. 3
Experimental: as §1
as §2, with “subcutaneously (SC)” for “intravenously (IV)”, “of” for “of the”, “(Pharsight” for “(Pharsight,”, “USA).” for “USA) program.”

[4] = tested on: 5xFAD mice; test: Morris Water Maze Test in an Alzheimer's disease mouse model; assay type: in vivo; conditions: 2 mg/kg subcutaneous, 3 times/week, 8 weeks
Experimental: An efficacy evaluation of GV2001 based on an Alzheimer's disease animal model was conducted according to Table 3 below. [TABLE 3] [table] 5xFAD mice are a well-established mouse model of Alzheimer's disease, in which amyloid-β is produced in neurons. Amyloid-β accumulation begins at approximately 2 months of age, neuronal damage progresses from around 6 months of age, and impairment in spatial learning ability develops from approximately 9 months of age. The mice were purchased from Jackson Laboratory, and seven-month-old mice obtained through breeding were used in the experiment. […] On day 11, a probe test was performed. […] In addition, the time spent in the target quadrant was increased in the GV1001 and GV2001 groups, confirming improvements in spatial learning ability (FIG. 4C).

[5] = tested on: amyloid-β; test: Immunoblot of hippocampal protein samples with anti-amyloid antibody (6E10); assay type: in vivo; conditions: 5xFAD mice, 2 mg/kg subcutaneous, 3 times/week, 8 weeks, FIG. 5
Experimental: (§3) An efficacy evaluation of GV2001 based on an Alzheimer's disease animal model was conducted according to Table 3 below.
(§4) 5xFAD mice are a well-established mouse model of Alzheimer's disease, in which amyloid-β is produced in neurons. Amyloid-β accumulation begins at approximately 2 months of age, neuronal damage progresses from around 6 months of age, and impairment in spatial learning ability develops from approximately 9 months of age. The mice were purchased from Jackson Laboratory, and seven-month-old mice obtained through breeding were used in the experiment.
In order to determine amyloid-β levels in the brains of each group of mice, immunoblotting was performed on mouse hippocampal protein samples using an anti-amyloid antibody (6E10).

[6] = tested on: Aβ1-42; test: Aβ1-42 ELISA of cerebral cortex protein samples; assay type: in vivo; conditions: 5xFAD mice, 2 mg/kg subcutaneous, 3 times/week, 8 weeks, FIG. 6
[7] = tested on: IL-1β, IL-6, and TNF-α; test: qRT-PCR of inflammatory cytokine mRNA in hippocampal samples; assay type: in vivo; conditions: 5xFAD mice, 2 mg/kg subcutaneous, 3 times/week, 8 weeks, FIG. 7
Experimental: as §3, §4
mRNA levels of cytokines involved in inflammation (IL-1β, IL-6, and TNF-α) were analyzed using qRT-PCR in mouse hippocampal samples.

[8] = tested on: amyloid-β plaques; test: Thioflavin-S staining of brain tissue sections; assay type: in vivo; conditions: 5xFAD mice, 2 mg/kg subcutaneous, 3 times/week, 8 weeks
Experimental: as §3, §4
(§5) Mouse brain tissue sections were stained with thioflavin-S and anti-amyloid antibody (6E10) to identify amyloid-β plaques and amyloid-β protein, respectively.

[9] = tested on: amyloid-β protein; test: Anti-amyloid antibody (6E10) staining of brain tissue sections; assay type: in vivo; conditions: 5xFAD mice, 2 mg/kg subcutaneous, 3 times/week, 8 weeks; both the cerebral cortex and hippocampus; FIGS. 10 and 11
Experimental: as §3, §4, §5

[10] = tested on: microglia; test: Anti-Iba-1 antibody staining of brain tissue sections (gliosis); assay type: in vivo; conditions: 5xFAD mice, 2 mg/kg subcutaneous, 3 times/week, 8 weeks, FIGS. 12 and 13
Experimental: as §3, §4
Mouse brain tissue sections were stained with an anti-Iba-1 antibody, which stains microglia, to analyze the level of gliosis in the mouse brain.

[11] = tested on: retinal pigment epithelial cells (ARPE-19); test: Reactive oxygen species detection with DCF-DA in an H2O2 cell model of age-related macular degeneration; assay type: cell-based; conditions: ARPE-19, H2O2 (50 µM), FIG. 14
Experimental: (§6) A cell model of age-related macular degeneration was established by treating the retinal pigment epithelial cell line ARPE-19 with hydrogen peroxide (H2O2) to generate reactive oxygen species.
(§7) The experimental groups were set up according to Table 4 below, and the efficacy of GV2001 was evaluated.
Using 2',7'-dichlorofluorescin diacetate (DCF-DA), a dye for detecting reactive oxygen species, changes in reactive oxygen species levels in retinal pigment epithelial cells (ARPE-19) treated with GV2001 were examined under a fluorescence microscope.

[12] = tested on: retinal pigment epithelial cell line ARPE-19; test: Epithelial-mesenchymal transition (cadherin 1, vimentin; confocal microscope) in an H2O2 cell model of age-related macular degeneration; assay type: cell-based; conditions: ARPE-19, H2O2 (50 µM), FIG. 15
Experimental: as §6, §7
The degree of epithelial-mesenchymal transition (EMT), which indicates retinal pigment epithelial cell degeneration, was evaluated by observing changes in cadherin 1, an epithelial cell marker, and vimentin, a mesenchymal cell marker, using a confocal microscope.

[13] = H2O2 for 2 hours then post-treatment for 24 hours, high-dose group
[14] = pretreatment for 2 hours then H2O2 for 24 hours, low-dose group

In the case of `CC[C@H](C)[C@H](NC(=O)[C@H](Cc1ccccc1)NC(=O)[C@H](CCCNC(=N)N)NC(=O)[C@H](CC(C)C)NC(=O)[C@H](CCCNC(=N)N)NC(=O)[C@H](CO)NC(=O)[C@@H](NC(=O)[C@H](CC(C)C)NC(=O)[C@H](CC(C)C)NC(=O)[C@H](C)NC(=O)[C@@H]1CCCN1C(=O)[C@H](CCCNC(=N)N)NC(=O)[C@H](C)NC(=O)[C@H](CCC(=O)O)NC(=O)[C@@H]1CCC(=O)N1)[C@@H](C)O)C(=O)N1CCC[C@H]1C(=O)N[C@@H](CCCCN)C(N)=O` [GV2001] ([pGlu]EARPALLTSRLRFIPK-NH2), the “percentage of residual peptide relative to the peptide amount before reaction” value [1] was “higher at each time point than that of GV1001”, the “AUCt of GV2001 relative to GV1001” value [2] was “more than four times higher” and the AUC(0-t) ([2]; rat, plasma, sampling up to 2 hours) was 107 ng·h/mL. For the same compound, the “in vivo stability (remaining in the body without degradation)” value [3] was “greater in vivo stability than GV1001”, the “latency to locate the hidden platform” value ([4]; 10-day training period, FIG. 4A) was “marked improvements in latency” and the “number of platform-zone crossings” value ([4]; probe test on day 11, FIG. 4B) was “exhibited improvements”. For the same compound, the “time spent in the target quadrant” value ([4]; probe test on day 11, FIG. 4C) was “increased”, the “amyloid-β levels (immunoblot, 6E10)” value [5] was “reduction” and the “amyloid-β levels (Aβ1-42 ELISA)” value [6] was “reduced level of amyloid-β protein”. The “mRNA levels of cytokines involved in inflammation (IL-1β, IL-6, and TNF-α)” value [7] was “greater reduction in cytokine expression compared to the 5xFAD group”, the “amyloid-β plaque deposition (thioflavin-S)” value ([8]; cerebral cortex, FIG. 8) was “reduction in amyloid-β plaque deposition” and the “amyloid-β plaque deposition (thioflavin-S)” value ([8]; hippocampus, FIG. 9) was “substantially reduced plaque deposition”. The “amyloid-β protein levels (6E10 antibody staining)” value [9] was “more pronounced decrease in amyloid-β protein levels”, the “gliosis levels (microglia staining, anti-Iba-1)” value [10] was “more pronounced decrease in gliosis levels” and the “DCF-DA fluorescence expression (reactive oxygen species)” value [11, 13] was “decreased”. For the same compound, the “DCF-DA fluorescence expression (reactive oxygen species)” value [11, 14] was “decreased”, the “progression of EMT (cadherin 1, vimentin)” value [12, 13] was “reduced the progression of EMT” and the “progression of EMT (cadherin 1, vimentin)” value [12, 14] was “reduced the progression of EMT”.
